Measurements: patent US20070225338A1, “Juvenile Hormone Analogs for Control of Leafhopper and Treehopper Pests” (priority 2004, published 2007)
“And” between values parts separate entries of the source, which are not always exact repeats. Equal values may be shown once.

Experiments:
GWSS = settings: cited from earlier work; for efficacy against GWSS (CDFA nursery shipping protocol list): in vivo; for speed of activity against GWSS: tested over several weeks, Redak and Bethke
[1] = tested on: Draeculacephala crassicornis; settings: topical, substrate and vapor treatments; cited from earlier work
[2] = tested on: Homalodisca coagulata females; test: Example 4: mortality of JH analog-treated field-collected gravid females; assay type: in vivo; settings: 10 days post-treatment, fifteen females per treatment
Procedure: The treatment rates for all three: methoprene, kinoprene, and hydroprene are listed below.
This example summarizes two ongoing tests involving field-collected gravid females and eggs oviposited less than 24 hours prior to treatment. […] After eclosion the neonates will be held on host plants until death or successful development to the second instar, which ever occurs first.
Fifteen females were used for each treatment. […] The females will be dissected to determine if there are sub-lethal effects of the JH analogs on the reproductive system.

[3] = tested on: Homalodisca coagulata (Say); test: Example 1: females in diapause sprayed with compound, oviposition and dissection of reproductive system; assay type: in vivo
From the text: (§1) As described in Examples 1 and 2, the inventors topically applied methoprene in an aqueous solution to GWSS females that were: 1) over-wintering in reproductive diapause or 2) females that were newly eclosed adults and not yet reproductively active. […] Untreated females ordinarily will begin reproductive cycles 10-12 days post eclosion.
Ten female Homalodisca coagulata (Say) were sprayed until visibly wet with the candidate compound. They were then placed into a wooden 1 m screened cage that was provisioned with five males and glabrous soybean, Glycine max (L.) A similar untreated control cage was also set up with females sprayed with distilled water. All leafhoppers were taken from a greenhouse culture and were in the process of terminating winter reproductive diapause. Females were checked daily for the presence of brochosomes and plants were checked for egg masses. Cages were in a greenhouse maintained at 32° C. and equipped with artificial lighting for a 14:10 photoperiod. Surviving females were dissected after thirty days and their reproductive status was evaluated.

H. coagulata = test: Example 2: newly-eclosed adult females treated with compound, dissection after 36 days; assay type: in vivo, Homalodisca coagulata
Procedure: as §1
Seven newly eclosed adult female H. coagulata were treated with the compound. The solution was applied with an aerosol device until individuals were noticeable wet. After treatment, female were placed into a wooden 1 m-screened cage that was provisioned with crape myrtle, eastern saltbush, and soybean. Five males of unknown ages were added to the cage. Female were dissected after 36 days. Males were discarded.

GWSS nymphs = test: Treatment of GWSS nymphs; assay type: in vivo, Homalodisca coagulata
[4] = tested on: egg parasitoids, Gonatocerus spp.; test: Impact on egg parasitoids; settings: non-target Gonatocerus spp.
GWSS females = test: Treatment of reproductively-active females; assay type: in vivo, Homalodisca coagulata; settings: following weeks of evaluation
[5] = treatment A: 1/100 of recommended dose
[6] = treatment B: 1/10 of recommended dose
[7] = treatment D: 10× recommended dose
[8] = treated diapausing females, one value per surviving female, dissected after thirty days
[9] = newly eclosed adult females, one value per female, 36 days post-treatment

SMILES: Cc1c(COC(=O)[C@@H]2[C@H](/C=C(\Cl)C(F)(F)F)C2(C)C)cccc1-c1ccccc1 (racemic) [bifenthrin]
- efficacy against GWSS (CDFA nursery shipping protocol list) (GWSS): some efficacy

SMILES: CC(COc1ccc(Oc2ccccc2)cc1)Oc1ccccn1 (racemic) [pyriproxifen, 4-phenoxyphenyl (RS)-2-(2-pyridyloxy)propyl ether]
- speed of activity against GWSS (GWSS): too slow to be useful for eradication purposes

SMILES: COC(=O)C=C(C)CCC=C(C)CCC1OC1(C)C (stereo not shown) [Juvenile hormone III]
- effect on diapause [1]: terminated diapause

SMILES: COP(=O)(NC(C)=O)SC (stereo not shown) [acephate]
- efficacy against GWSS (CDFA nursery shipping protocol list) (GWSS): some efficacy

SMILES: CC(C)N1C(=O)N(c2ccccc2)CS/C1=N\C(C)(C)C [buprofizen]
- speed of activity against GWSS (GWSS): too slow to be useful for eradication purposes

SMILES: CNC(=O)Oc1cccc2ccccc12 [carbaryl]
- efficacy against GWSS (CDFA nursery shipping protocol list) (GWSS): some efficacy

SMILES: CCOP(=S)(OCC)Oc1nc(Cl)c(Cl)cc1Cl [chlorpyrifos]
- efficacy against GWSS (CDFA nursery shipping protocol list) (GWSS): some efficacy

SMILES: CC1(C)C(C=C(Cl)Cl)C1C(=O)OC(C#N)c1ccc(F)c(Oc2ccccc2)c1 (stereo not shown) [cyfluthrin]
- efficacy against GWSS (CDFA nursery shipping protocol list) (GWSS): some efficacy

SMILES: CC1(C)[C@H](C(=O)O[C@H](C#N)c2cccc(Oc3ccccc3)c2)[C@@H]1C=C(Br)Br [deltamethrin]
- efficacy against GWSS (CDFA nursery shipping protocol list) (GWSS): some efficacy

SMILES: CC1(C)C(C(=O)OC(C#N)c2cccc(Oc3ccccc3)c2)C1(C)C (stereo not shown) [fenpropathrin]
- efficacy against GWSS (CDFA nursery shipping protocol list) (GWSS): some efficacy

SMILES: CCOC(=O)/C=C(C)/C=C/CC(C)CCCC(C)C (stereo not shown) [hydroprene, ethyl (2E,4E)-3,7,11-trimethyl-2,4-dodecadienoate]
- number of dead female Homalodisca coagulata [2, 5]: 3
- number of dead female Homalodisca coagulata [2, 6]: 0
- number of dead female Homalodisca coagulata ([2]; treatment C: recommended dose): 0
- number of dead female Homalodisca coagulata [2, 7]: 14

SMILES: O=[N+]([O-])NC1=NCCN1Cc1ccc(Cl)nc1 [imidaclopid]
- efficacy against GWSS (CDFA nursery shipping protocol list) (GWSS): some efficacy

SMILES: C#CCOC(=O)/C=C(C)/C=C/CC(C)CCCC(C)C [kinoprene, 2-propynl (2E,4E)-(7S)-3,7,11-trimethyl-2,4-dodecadienoate]
- number of dead female Homalodisca coagulata [2, 5]: 1
- number of dead female Homalodisca coagulata [2, 6]: 1
- number of dead female Homalodisca coagulata ([2]; treatment C: recommended dose): 0
- number of dead female Homalodisca coagulata [2, 7]: 0

SMILES: CNC(=O)Oc1cc(C)c(SC)c(C)c1 [methiocarb]
- efficacy against GWSS (CDFA nursery shipping protocol list) (GWSS): some efficacy

SMILES: COC(C)(C)CCC[C@H](C)C/C=C/C(C)=C/C(=O)OC(C)C [methoprene, isopropyl (2E,4E)-11-methoxy-3,7,11-trimethyl-2-2,4-dodecadienoate]
- reproductive activity of surviving treated females on dissection ([3]; after 30 days): had not begun reproductive activity
- eggs produced by treated females ([3]; diapausing females, 30 days): No eggs were produced
- time treated females remained reproductively inactive ([3]; diapausing females, topical aqueous solution, summer conditions (32° C., 14:10 L:D), untreated controls oviposit after 10 days): at least 30 days
- Brochosomes (within Malpigian tubules) [3, 8]: 1
- Fat body [3, 8]: 2
- Ova [3, 8]: 1
- Ovarioles ([3]; treated diapausing females, one value per surviving female, dissected after thirty days, 32° C., 14:10 photoperiod): 2
- time without egg production post-treatment (H. coagulata; 36 days was the maximum time tested): at least 36 days
- accumulated fat body in treated females (H. coagulata; dissection of adult females): high amount of accumulated fat body
- effect on development of brochosomes and ovarioles (H. coagulata; dissection of reproductive system of adult females): inhibits the development of both brochosomes and ovarioles
- Brochosomes (H. coagulata; [9]): 1 and 1.5
- Fat body (H. coagulata; [9]): 2.5 and 1.5 and 2
- Ova (H. coagulata; [9]): 1
- Ovarioles (H. coagulata; [9]): 2
- eggs produced by treated females (H. coagulata; newly eclosed females, 36 days): no eggs were produced
- ovariole (reproductive) development on dissection (H. coagulata; newly eclosed females, 36 days): inhibited
- egg development and oviposition after treatment (H. coagulata; newly eclosed females, after 36 days of summer conditions, untreated begin 10-12 days post eclosion): did not develop eggs or oviposit
- effect of treating nymphs (mortality, time of development, morphology) (GWSS nymphs): did not cause mortality, increase or decrease time of development, or induce morphological aberrations
- impact on egg parasitoids [4]: no impact
- number of dead female Homalodisca coagulata [2, 5]: 0
- number of dead female Homalodisca coagulata [2, 6]: 0
- number of dead female Homalodisca coagulata ([2]; treatment C: recommended dose): 0
- number of dead female Homalodisca coagulata [2, 7]: 0
- oviposition of treated reproductively-active females (GWSS females): oviposited the eggs they contained then stopped

SMILES: O=C(NC(=O)c1c(F)cccc1F)Nc1ccc(OC(F)(F)C(F)OC(F)(F)F)c(Cl)c1 (stereo not shown) [novaluron]
- speed of activity against GWSS (GWSS): too slow to be useful for eradication purposes

SMILES: CC1(C)C(C=C(Cl)Cl)C1C(=O)OCc1cccc(Oc2ccccc2)c1 (stereo not shown) [permethrin]
- efficacy against GWSS (CDFA nursery shipping protocol list) (GWSS): some efficacy
